Experimental data from ChEMBL document CHEMBL5303573, “Mapping human microbiome drug metabolism by gut bacteria and their genes” (Nature, 2019).

Tests used:
[1] = The drug is tested on Bifidobacterium breve strain: DSM20213 for biotransformation. The drug concentrations were measured before and after a 12-h incubation by liquid-chromatography-coupled mass spectrometry (LC–MS); conditions: 2 µM
[2] = The drug is tested on Eggerthella lenta strain: ATCC25559 for biotransformation. The drug concentrations were measured before and after a 12-h incubation by liquid-chromatography-coupled mass spectrometry (LC–MS); conditions: 2 µM
[3] = The drug is tested on Bacteroides cellulosilyticus strain: DSM14838 for biotransformation. The drug concentrations were measured before and after a 12-h incubation by liquid-chromatography-coupled mass spectrometry (LC–MS); conditions: 2 µM
[4] = The drug is tested on Bacteroides fragilis strain: HMW615 for biotransformation. The drug concentrations were measured before and after a 12-h incubation by liquid-chromatography-coupled mass spectrometry (LC–MS); conditions: 2 µM
[5] = The drug is tested on Bacteroides fragilis strain: ATCC43859 for biotransformation. The drug concentrations were measured before and after a 12-h incubation by liquid-chromatography-coupled mass spectrometry (LC–MS); conditions: 2 µM
[6] = The drug is tested on Bacteroides sp. WH2 strain: WH2 for biotransformation. The drug concentrations were measured before and after a 12-h incubation by liquid-chromatography-coupled mass spectrometry (LC–MS); conditions: bacteroides sp. wh2, 12 h, 2 µM
[7] = The drug is tested on Bacteroides xylanisolvens strain: DSM18836 for biotransformation. The drug concentrations were measured before and after a 12-h incubation by liquid-chromatography-coupled mass spectrometry (LC–MS); conditions: 2 µM
[8] = The drug is tested on Odoribacter splanchnicus strain: fecal isolate for biotransformation. The drug concentrations were measured before and after a 12-h incubation by liquid-chromatography-coupled mass spectrometry (LC–MS); conditions: 2 µM
[9] = The drug is tested on Anaerotruncus colihominis strain: DSM17241 for biotransformation. The drug concentrations were measured before and after a 12-h incubation by liquid-chromatography-coupled mass spectrometry (LC–MS); conditions: 2 µM
[10] = The drug is tested on Clostridium asparagiforme strain: DSM15981 for biotransformation. The drug concentrations were measured before and after a 12-h incubation by liquid-chromatography-coupled mass spectrometry (LC–MS); assay type: ADME; design: dose 2 uM, timepoint 0 vs 12 hours; conditions: enterocloster asparagiformis, 2 µM
[11] = The drug is tested on Clostridium scindens strain: ATCC35704 for biotransformation. The drug concentrations were measured before and after a 12-h incubation by liquid-chromatography-coupled mass spectrometry (LC–MS); conditions: 2 µM
[12] = The drug is tested on Eubacterium hallii strain: DSM3353 for biotransformation. The drug concentrations were measured before and after a 12-h incubation by liquid-chromatography-coupled mass spectrometry (LC–MS); conditions: anaerobutyricum hallii, 2 µM
[13] = The drug is tested on Eubacterium rectale strain: ATCC33656 for biotransformation. The drug concentrations were measured before and after a 12-h incubation by liquid-chromatography-coupled mass spectrometry (LC–MS); conditions: agathobacter rectalis, 2 µM
[14] = The drug is tested on Eubacterium ventriosum strain: ATCC27560 for biotransformation. The drug concentrations were measured before and after a 12-h incubation by liquid-chromatography-coupled mass spectrometry (LC–MS); assay type: ADME; design: dose 2 uM, timepoint 0 vs 12 hours; conditions: 2 µM
[15] = The drug is tested on Ruminococcus lactaris strain: ATCC29176 for biotransformation. The drug concentrations were measured before and after a 12-h incubation by liquid-chromatography-coupled mass spectrometry (LC–MS); conditions: 2 µM
[16] = bifidobacterium adolescentis, 12 h, 2 µM
Description: The drug is tested on Bifidobacterium adolescentis strain: ATCC 15703 for biotransformation. The drug concentrations were measured before and after a 12-h incubation by liquid-chromatography-coupled mass spectrometry (LC–MS)

[17] = bacteroides eggerthii, 12 h, 2 µM
Description: The drug is tested on Bacteroides eggerthii strain: DSM20697 for biotransformation. The drug concentrations were measured before and after a 12-h incubation by liquid-chromatography-coupled mass spectrometry (LC–MS)

[18] = bacteroides stercoris, 12 h, 2 µM
Description: The drug is tested on Bacteroides stercoris strain: ATCC43183 for biotransformation. The drug concentrations were measured before and after a 12-h incubation by liquid-chromatography-coupled mass spectrometry (LC–MS)

[19] = enterocloster bolteae, 12 h, 2 µM
Description: The drug is tested on Clostridium bolteae strain: ATCCBAA-613 for biotransformation. The drug concentrations were measured before and after a 12-h incubation by liquid-chromatography-coupled mass spectrometry (LC–MS)

[20] = limosilactobacillus reuteri cf48-3a, 12 h, 2 µM
Description: The drug is tested on Lactobacillus reuteri CF48-3A strain: BEI HM-102 for biotransformation. The drug concentrations were measured before and after a 12-h incubation by liquid-chromatography-coupled mass spectrometry (LC–MS)

COc1ccnc(C[S+]([O-])c2nc3ccc(OC(F)F)cc3[nH]2)c1OC (stereo not given) [PANTOPRAZOLE]
Bacterial Biotransformation [1]: Compound metabolized | Bacterial Biotransformation [2]: Compound metabolized | Bacterial Biotransformation [3]: Compound metabolized | Bacterial Biotransformation [4]: Compound metabolized | Bacterial Biotransformation [5]: Compound metabolized | Bacterial Biotransformation [6]: Compound metabolized | Bacterial Biotransformation [7]: Compound metabolized | Bacterial Biotransformation [8]: Compound metabolized | Bacterial Biotransformation [9]: Compound metabolized | Bacterial Biotransformation [10]: Compound metabolized | Bacterial Biotransformation [11]: Compound metabolized | Bacterial Biotransformation [12]: Compound metabolized | Bacterial Biotransformation [13]: Compound metabolized | Bacterial Biotransformation [14]: Compound metabolized | Bacterial Biotransformation [15]: Compound metabolized | Bacterial Biotransformation [16]: Compound metabolized | Bacterial Biotransformation [17]: Compound metabolized | Bacterial Biotransformation [18]: Compound metabolized | Bacterial Biotransformation [19]: Compound metabolized | Bacterial Biotransformation [20]: Compound metabolized

CN1CCc2cccc3c2[C@H]1Cc1ccc(O)c(O)c1-3 [APOMORPHINE]
Bacterial Biotransformation [1]: Compound NOT metabolized | Bacterial Biotransformation [2]: Compound NOT metabolized | Bacterial Biotransformation [3]: Compound NOT metabolized | Bacterial Biotransformation [4]: Compound NOT metabolized | Bacterial Biotransformation [5]: Compound NOT metabolized | Bacterial Biotransformation [6]: Compound NOT metabolized | Bacterial Biotransformation [7]: Compound NOT metabolized | Bacterial Biotransformation [8]: Compound NOT metabolized | Bacterial Biotransformation [9]: Compound NOT metabolized | Bacterial Biotransformation [10]: Compound NOT metabolized | Bacterial Biotransformation [11]: Compound NOT metabolized | Bacterial Biotransformation [12]: Compound NOT metabolized | Bacterial Biotransformation [13]: Compound NOT metabolized | Bacterial Biotransformation [14]: Compound NOT metabolized | Bacterial Biotransformation [15]: Compound NOT metabolized | Bacterial Biotransformation [16]: Compound NOT metabolized | Bacterial Biotransformation [17]: Compound NOT metabolized | Bacterial Biotransformation [18]: Compound NOT metabolized | Bacterial Biotransformation [19]: Compound NOT metabolized | Bacterial Biotransformation [20]: Compound NOT metabolized

N[C@@H](Cc1ccc(N(CCCl)CCCl)cc1)C(=O)O
Bacterial Biotransformation [1]: Compound metabolized | Bacterial Biotransformation [2]: Compound metabolized | Bacterial Biotransformation [3]: Compound metabolized | Bacterial Biotransformation [4]: Compound metabolized | Bacterial Biotransformation [5]: Compound metabolized | Bacterial Biotransformation [6]: Compound metabolized | Bacterial Biotransformation [7]: Compound metabolized | Bacterial Biotransformation [8]: Compound metabolized | Bacterial Biotransformation [9]: Compound metabolized | Bacterial Biotransformation [10]: Compound metabolized | Bacterial Biotransformation [11]: Compound metabolized | Bacterial Biotransformation [12]: Compound metabolized | Bacterial Biotransformation [13]: Compound metabolized | Bacterial Biotransformation [14]: Compound metabolized | Bacterial Biotransformation [15]: Compound metabolized | Bacterial Biotransformation [16]: Compound metabolized | Bacterial Biotransformation [17]: Compound metabolized | Bacterial Biotransformation [18]: Compound metabolized | Bacterial Biotransformation [19]: Compound metabolized | Bacterial Biotransformation [20]: Compound metabolized

CCN(CC)CCOCCOC(=O)C1(c2ccccc2)CCCC1.O=C(O)CC(O)(CC(=O)O)C(=O)O [CARBETAPENTANE CITRATE]
Bacterial Biotransformation [1]: Compound metabolized | Bacterial Biotransformation [2]: Compound metabolized | Bacterial Biotransformation [3]: Compound metabolized | Bacterial Biotransformation [4]: Compound NOT metabolized | Bacterial Biotransformation [5]: Compound NOT metabolized | Bacterial Biotransformation [6]: Compound metabolized | Bacterial Biotransformation [7]: Compound metabolized | Bacterial Biotransformation [8]: Compound metabolized | Bacterial Biotransformation [9]: Compound metabolized | Bacterial Biotransformation [10]: Compound metabolized | Bacterial Biotransformation [11]: Compound metabolized | Bacterial Biotransformation [12]: Compound metabolized | Bacterial Biotransformation [13]: Compound NOT metabolized | Bacterial Biotransformation [14]: Compound metabolized | Bacterial Biotransformation [15]: Compound NOT metabolized | Bacterial Biotransformation [16]: Compound metabolized | Bacterial Biotransformation [17]: Compound metabolized | Bacterial Biotransformation [18]: Compound metabolized | Bacterial Biotransformation [19]: Compound metabolized | Bacterial Biotransformation [20]: Compound metabolized

O=C(O)c1cc(/N=N/c2ccc(S(=O)(=O)Nc3ccccn3)cc2)ccc1O [SULFASALAZINE]
Bacterial Biotransformation [1]: Compound metabolized | Bacterial Biotransformation [2]: Compound metabolized | Bacterial Biotransformation [3]: Compound metabolized | Bacterial Biotransformation [4]: Compound metabolized | Bacterial Biotransformation [5]: Compound metabolized | Bacterial Biotransformation [6]: Compound metabolized | Bacterial Biotransformation [7]: Compound metabolized | Bacterial Biotransformation [8]: Compound metabolized | Bacterial Biotransformation [9]: Compound metabolized | Bacterial Biotransformation [10]: Compound metabolized | Bacterial Biotransformation [11]: Compound metabolized | Bacterial Biotransformation [12]: Compound metabolized | Bacterial Biotransformation [13]: Compound metabolized | Bacterial Biotransformation [14]: Compound metabolized | Bacterial Biotransformation [15]: Compound metabolized | Bacterial Biotransformation [16]: Compound metabolized | Bacterial Biotransformation [17]: Compound metabolized | Bacterial Biotransformation [18]: Compound metabolized | Bacterial Biotransformation [19]: Compound metabolized | Bacterial Biotransformation [20]: Compound metabolized

CC(=O)OCC(=O)NCCCOc1cccc(CN2CCCCC2)c1 [ROXATIDINE ACETATE]
Bacterial Biotransformation [1]: Compound metabolized | Bacterial Biotransformation [2]: Compound metabolized | Bacterial Biotransformation [3]: Compound metabolized | Bacterial Biotransformation [4]: Compound metabolized | Bacterial Biotransformation [5]: Compound metabolized | Bacterial Biotransformation [6]: Compound metabolized | Bacterial Biotransformation [7]: Compound metabolized | Bacterial Biotransformation [8]: Compound metabolized | Bacterial Biotransformation [9]: Compound metabolized | Bacterial Biotransformation [10]: Compound metabolized | Bacterial Biotransformation [11]: Compound metabolized | Bacterial Biotransformation [12]: Compound NOT metabolized | Bacterial Biotransformation [13]: Compound NOT metabolized | Bacterial Biotransformation [14]: Compound metabolized | Bacterial Biotransformation [15]: Compound metabolized | Bacterial Biotransformation [16]: Compound metabolized | Bacterial Biotransformation [17]: Compound metabolized | Bacterial Biotransformation [18]: Compound metabolized | Bacterial Biotransformation [19]: Compound metabolized | Bacterial Biotransformation [20]: Compound NOT metabolized

CCOc1ccc2nc(S(N)(=O)=O)sc2c1 [ETHOXZOLAMIDE]
Bacterial Biotransformation [1]: Compound metabolized | Bacterial Biotransformation [2]: Compound metabolized | Bacterial Biotransformation [3]: Compound metabolized | Bacterial Biotransformation [4]: Compound NOT metabolized | Bacterial Biotransformation [5]: Compound NOT metabolized | Bacterial Biotransformation [6]: Compound metabolized | Bacterial Biotransformation [7]: Compound metabolized | Bacterial Biotransformation [8]: Compound metabolized | Bacterial Biotransformation [9]: Compound metabolized | Bacterial Biotransformation [10]: Compound metabolized | Bacterial Biotransformation [11]: Compound metabolized | Bacterial Biotransformation [12]: Compound metabolized | Bacterial Biotransformation [13]: Compound metabolized | Bacterial Biotransformation [14]: Compound metabolized | Bacterial Biotransformation [15]: Compound metabolized | Bacterial Biotransformation [16]: Compound metabolized | Bacterial Biotransformation [17]: Compound metabolized | Bacterial Biotransformation [18]: Compound metabolized | Bacterial Biotransformation [19]: Compound metabolized | Bacterial Biotransformation [20]: Compound metabolized

CC(Oc1c(Cl)cccc1Cl)C1=NCCN1 (stereo not given) [LOFEXIDINE]
Bacterial Biotransformation [1]: Compound metabolized | Bacterial Biotransformation [2]: Compound metabolized | Bacterial Biotransformation [3]: Compound metabolized | Bacterial Biotransformation [4]: Compound NOT metabolized | Bacterial Biotransformation [5]: Compound metabolized | Bacterial Biotransformation [6]: Compound metabolized | Bacterial Biotransformation [7]: Compound NOT metabolized | Bacterial Biotransformation [8]: Compound metabolized | Bacterial Biotransformation [9]: Compound metabolized | Bacterial Biotransformation [10]: Compound metabolized | Bacterial Biotransformation [11]: Compound metabolized | Bacterial Biotransformation [12]: Compound metabolized | Bacterial Biotransformation [13]: Compound metabolized | Bacterial Biotransformation [14]: Compound NOT metabolized | Bacterial Biotransformation [15]: Compound metabolized | Bacterial Biotransformation [16]: Compound metabolized | Bacterial Biotransformation [17]: Compound metabolized | Bacterial Biotransformation [18]: Compound metabolized | Bacterial Biotransformation [19]: Compound metabolized | Bacterial Biotransformation [20]: Compound metabolized
